Molecules are shown by their SMILES. A value given as a limit tells only on which side of the number the result lay.

Chain of Metabotropic glutamate receptor 5 (Homo sapiens, UniProt P41594) (P41594 whole entry): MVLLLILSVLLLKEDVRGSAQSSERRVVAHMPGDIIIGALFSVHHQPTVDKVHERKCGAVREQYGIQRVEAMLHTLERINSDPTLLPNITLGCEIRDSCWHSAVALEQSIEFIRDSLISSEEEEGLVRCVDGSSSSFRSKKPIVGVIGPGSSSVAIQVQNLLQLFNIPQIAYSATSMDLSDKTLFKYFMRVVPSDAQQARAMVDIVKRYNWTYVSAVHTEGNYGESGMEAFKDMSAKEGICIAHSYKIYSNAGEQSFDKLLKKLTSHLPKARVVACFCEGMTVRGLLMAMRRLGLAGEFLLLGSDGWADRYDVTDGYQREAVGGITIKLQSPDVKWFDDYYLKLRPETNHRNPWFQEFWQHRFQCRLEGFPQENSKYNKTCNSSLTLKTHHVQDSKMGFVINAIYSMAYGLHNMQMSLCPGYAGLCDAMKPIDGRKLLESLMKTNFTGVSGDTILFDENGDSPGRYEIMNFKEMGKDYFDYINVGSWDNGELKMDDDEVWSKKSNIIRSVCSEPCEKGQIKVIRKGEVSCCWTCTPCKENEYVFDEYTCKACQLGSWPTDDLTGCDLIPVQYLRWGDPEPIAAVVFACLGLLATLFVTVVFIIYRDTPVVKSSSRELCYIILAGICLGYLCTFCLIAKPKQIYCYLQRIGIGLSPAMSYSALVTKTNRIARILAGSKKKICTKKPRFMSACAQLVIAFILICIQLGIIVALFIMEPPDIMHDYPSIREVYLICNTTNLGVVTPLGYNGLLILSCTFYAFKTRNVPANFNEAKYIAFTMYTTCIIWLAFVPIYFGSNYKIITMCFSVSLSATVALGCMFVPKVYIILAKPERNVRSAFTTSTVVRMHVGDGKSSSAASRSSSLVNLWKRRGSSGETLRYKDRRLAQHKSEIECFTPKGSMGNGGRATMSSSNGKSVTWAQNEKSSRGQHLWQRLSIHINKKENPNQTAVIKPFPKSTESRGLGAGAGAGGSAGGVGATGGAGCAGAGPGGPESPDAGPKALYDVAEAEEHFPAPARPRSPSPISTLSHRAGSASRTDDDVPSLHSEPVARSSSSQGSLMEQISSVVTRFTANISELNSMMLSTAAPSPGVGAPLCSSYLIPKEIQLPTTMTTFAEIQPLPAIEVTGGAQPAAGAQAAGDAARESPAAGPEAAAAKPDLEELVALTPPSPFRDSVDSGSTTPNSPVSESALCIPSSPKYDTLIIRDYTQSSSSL
Chain of Metabotropic glutamate receptor 5 (Rattus norvegicus, UniProt P31424) (P31424 whole entry): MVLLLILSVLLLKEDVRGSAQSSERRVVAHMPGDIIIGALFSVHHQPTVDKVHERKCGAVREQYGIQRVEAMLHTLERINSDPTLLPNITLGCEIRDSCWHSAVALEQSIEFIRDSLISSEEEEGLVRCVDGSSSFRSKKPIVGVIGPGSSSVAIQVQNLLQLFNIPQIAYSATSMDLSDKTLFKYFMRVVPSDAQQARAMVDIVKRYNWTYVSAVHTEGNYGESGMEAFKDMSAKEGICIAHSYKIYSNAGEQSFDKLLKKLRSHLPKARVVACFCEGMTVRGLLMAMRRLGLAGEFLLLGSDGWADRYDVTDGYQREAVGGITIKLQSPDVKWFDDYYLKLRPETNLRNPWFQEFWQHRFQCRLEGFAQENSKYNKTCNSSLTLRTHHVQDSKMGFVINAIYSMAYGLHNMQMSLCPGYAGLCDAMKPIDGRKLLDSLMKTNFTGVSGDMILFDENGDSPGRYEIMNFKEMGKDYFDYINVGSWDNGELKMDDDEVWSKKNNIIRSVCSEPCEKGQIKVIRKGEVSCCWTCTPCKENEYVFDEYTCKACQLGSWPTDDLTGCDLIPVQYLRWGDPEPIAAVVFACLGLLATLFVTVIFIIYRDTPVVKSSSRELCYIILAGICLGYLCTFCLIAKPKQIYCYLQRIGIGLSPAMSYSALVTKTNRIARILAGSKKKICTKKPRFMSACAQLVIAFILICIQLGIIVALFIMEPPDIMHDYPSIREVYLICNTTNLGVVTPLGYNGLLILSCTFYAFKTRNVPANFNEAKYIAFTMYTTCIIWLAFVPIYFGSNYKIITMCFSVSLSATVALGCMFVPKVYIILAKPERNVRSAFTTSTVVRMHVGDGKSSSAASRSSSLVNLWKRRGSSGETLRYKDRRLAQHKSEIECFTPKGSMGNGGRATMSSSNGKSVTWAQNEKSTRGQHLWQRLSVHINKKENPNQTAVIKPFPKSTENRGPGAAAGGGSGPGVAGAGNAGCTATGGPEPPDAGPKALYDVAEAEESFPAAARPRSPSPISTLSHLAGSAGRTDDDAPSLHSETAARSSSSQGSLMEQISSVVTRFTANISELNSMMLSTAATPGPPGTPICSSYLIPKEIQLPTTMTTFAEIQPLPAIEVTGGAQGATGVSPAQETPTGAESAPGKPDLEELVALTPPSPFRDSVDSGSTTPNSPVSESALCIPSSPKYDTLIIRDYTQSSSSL

The first test concerns the target Metabotropic glutamate receptor 5 (Rattus norvegicus, UniProt P31424). Put plainly: Displacement of [3H]MPEP from mGluR5 in rat brain membrane. It is filed as cell membranes.
Usually Ki stands for a measure of affinity in units of concentration, obtained from inhibition or displacement. For the compound `Cc1cccc(NC(=O)c2ccc(-c3ccccn3)cn2)n1`, affinity was put at a Ki of 0.1 µM.

For the compound `Cc1cccc(NC(=O)c2nccc3ccccc23)n1`, the Ki was 0.44 µM.

The compound `Cc1cccc(NC(=O)c2cc(-c3cccc4ccccc34)ccn2)n1` displayed a Ki of 0.25 µM.

Regarding `Cc1cccc(NC(=O)c2cc(-c3ncccn3)ccn2)n1`, the Ki turned out to be 2.48 µM.

On to `Cc1cccc(NC(=O)c2cccn2C)n1`, for which the inhibition constant (Ki) was more than 10 µM.

On to `Cc1cccc(NC(=O)c2cc(-c3cc(F)cc(F)c3)ccn2)n1`, for which the Ki was determined as 0.043 µM.

In the case of `Cc1cccc(NC(=O)c2cc(-c3cccc(F)c3)ccn2)n1`, the Ki is 0.5 µM.

As to `Cc1cccc(NC(=O)c2cc(-c3cccc(C#N)c3)ccn2)n1`, the inhibition constant Ki amounted to 0.32 µM.

In the case of `COc1ccccc1-c1ccc(C(=O)Nc2cccc(C)n2)nc1`, the Ki turned out to be 0.56 µM.

As to `Cc1cccc(NC(=O)c2nccn2C)n1`, affinity was put at a Ki of 3.07 µM.

On to `Cc1cccc(NC(=O)c2ccc(-c3ccccc3)cn2)n1`, for which the Ki was determined as 2.8 µM.

The next test has as its target Metabotropic glutamate receptor 5 (Homo sapiens, UniProt P41594). Put plainly: Antagonist activity at mGluR5 expressed in CHO cells assessed as phosphoinositide hydrolysis. It is filed as functional, cell-based.
For orientation: IC50 means the concentration that gives 50% inhibition. For the compound `Cc1cccc(NC(=O)c2ccc(-c3ccccn3)cn2)n1`, the IC50 came to 12.4 µM.

As for `Cc1cccc(NC(=O)c2cc(-c3cc(F)cc(F)c3)ccn2)n1`, the IC50 is 0.16 µM.

As for `Cc1cccc(NC(=O)c2cc(-c3cccc(C#N)c3)ccn2)n1`, the half-maximal inhibitory concentration (IC50) was determined as 7.3 µM.

The target in a further test is Metabotropic glutamate receptor 5 (Rattus norvegicus) (UniProt P31424). Nature of the test: Displacement of [3H]MPEP from mGluR5 in rat brain membrane at 10 uM. The class given is cell membranes. In general terms: Loss of bound radioactivity is the signal in a displacement assay; it reports binding, not function.
Chain of Metabotropic glutamate receptor 5 (Rattus norvegicus) (P31424 21-1203 limits assumed): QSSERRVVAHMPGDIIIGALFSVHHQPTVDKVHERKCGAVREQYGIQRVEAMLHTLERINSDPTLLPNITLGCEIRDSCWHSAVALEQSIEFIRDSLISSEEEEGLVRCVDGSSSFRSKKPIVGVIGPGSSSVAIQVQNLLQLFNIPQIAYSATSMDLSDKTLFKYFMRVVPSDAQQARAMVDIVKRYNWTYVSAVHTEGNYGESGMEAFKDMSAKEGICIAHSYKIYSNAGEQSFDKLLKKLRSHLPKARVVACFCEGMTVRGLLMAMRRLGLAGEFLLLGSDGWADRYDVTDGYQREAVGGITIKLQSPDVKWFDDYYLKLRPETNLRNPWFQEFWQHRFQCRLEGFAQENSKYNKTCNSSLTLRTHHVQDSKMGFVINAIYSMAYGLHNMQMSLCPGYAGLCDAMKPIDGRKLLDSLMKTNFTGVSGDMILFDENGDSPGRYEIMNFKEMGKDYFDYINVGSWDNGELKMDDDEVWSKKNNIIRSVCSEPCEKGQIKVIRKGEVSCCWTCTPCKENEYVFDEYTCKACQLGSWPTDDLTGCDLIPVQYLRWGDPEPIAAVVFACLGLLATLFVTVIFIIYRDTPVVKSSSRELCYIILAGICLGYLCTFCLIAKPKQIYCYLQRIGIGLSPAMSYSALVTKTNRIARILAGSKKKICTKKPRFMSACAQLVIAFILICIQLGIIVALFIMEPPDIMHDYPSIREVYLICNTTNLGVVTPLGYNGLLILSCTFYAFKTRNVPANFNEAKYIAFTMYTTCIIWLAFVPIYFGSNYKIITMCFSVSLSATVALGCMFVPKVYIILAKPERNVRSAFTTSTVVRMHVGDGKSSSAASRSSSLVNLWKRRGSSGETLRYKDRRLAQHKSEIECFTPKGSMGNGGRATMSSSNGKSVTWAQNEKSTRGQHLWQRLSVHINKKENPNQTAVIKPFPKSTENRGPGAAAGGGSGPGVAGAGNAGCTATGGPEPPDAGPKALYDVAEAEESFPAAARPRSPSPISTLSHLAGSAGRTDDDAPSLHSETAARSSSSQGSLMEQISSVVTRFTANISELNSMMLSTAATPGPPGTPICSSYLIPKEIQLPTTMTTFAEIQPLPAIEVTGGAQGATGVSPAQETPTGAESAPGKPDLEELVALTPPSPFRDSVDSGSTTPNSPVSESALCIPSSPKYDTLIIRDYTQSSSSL
`Cc1cccc(NC(=O)c2cc3ccccc3o2)n1` had an Activity of 40%.

`Cc1cccc(NC(=O)c2cc3ccccc3n2C)n1` showed an Activity of 8%.

`Cc1cccc(NC(=O)c2ccc(-c3cccc(C#N)c3)cn2)n1`: the Activity was 7.4%.

The compound `Cc1cccc(NC(=O)c2cc(-c3cccs3)ccn2)n1` had an Activity of less than 1%.

Turning to `Cc1cccc(NC(=O)c2cc(-c3ccc4ccccc4c3)ccn2)n1`, the Activity worked out at 32%.

Compound `Cc1cccc(NC(=O)c2cc3ccccc3s2)n1` came in with an Activity of 11%.

The compound `Cc1cccc(NC(=O)c2csc(-c3ccccc3)n2)n1` came in with an Activity of less than 1%.

For the compound `Cc1cccc(NC(=O)c2cc3ccccc3[nH]2)n1`, the Activity was less than 1%.

Compound `COc1cccc(-c2ccnc(C(=O)Nc3cccc(C)n3)c2)c1` showed an Activity of 13%.

The compound `COc1ccccc1-c1ccnc(C(=O)Nc2cccc(C)n2)c1` yielded an Activity of 91%.

As for `Cc1cccc(NC(=O)c2cc(Cl)ccn2)n1`, the Activity amounted to 28%.

In the case of `Cc1cccc(NC(=O)c2ccc(-c3cccs3)cn2)n1`, the Activity was 40%.

Values taken from ChEMBL document CHEMBL1139181, “Design and synthesis of novel heterobiaryl amides as metabotropic glutamate receptor subtype 5 antagonists” (Bioorg Med Chem Lett, 2007).
